Data taken from patent US10053484B2, “Heterocycle-substituted xanthene dyes” (Biotium, Inc., priority 2009, dated 2018).
“Also recorded” adds a separate entry of the source.

What was measured:
[1] = Measurement of absorption and emission spectra of free dyes or dye-protein conjugates; assay type: physicochemical; settings: for Absorption Wavelengths / Emission Wavelengths: in PBS
Description: The absorption spectra of free dyes or dye-antibody conjugates were measured on Beckman Coulter DU800 in pH 7.4 PBS. The concentrations of the dyes or conjugates were adjusted so that the maximal absorbance was around 1.0. The fluorescence emission spectra of the free dyes and conjugates were measured on a Hitachi F4500.

[2] = Photostability comparison of dye-antibody conjugates on stained fixed Jurkat cells (microscopy, Cy5 filter set); assay type: physicochemical; settings: for photostability: goat anti-mouse IgG conjugates on fixed Jurkat cells, continuous illumination, relative fluorescence vs. time (FIG. 5)
Description: Jurkat cells were fixed and stained with intracellular mouse anti-human CD3 primary antibody (0.375 ug) followed by 1 ug of goat-anti-mouse IgG conjugated to AlexaFluor633 (DOL 2.3), compound No. 6 (DOL 2.3), DyLight649 (DOL˜6), or Alexa Fluor 647 (DOL˜6). The DOL for each conjugate was the optimal value for each dye. Images were taken on an Olympus mercury arc lamp microscope using a Cy5 filter set. The relative fluorescence vs. time for each sample was plotted (FIG. 5). Traditionally, sulfonated cyanine dyes, such as Alexa Fluor 647 and DyLight 647, have been used for the 633 nm excitation by the HeNe laser with red emission. More recently, rhodamine-based Alexa Fluor 633 dye has become commercially available.

HeLa cells = test: Mitochondrial staining of live HeLa cells; assay type: cell-based; settings: 200 nM compound No. 16 or 10 uM compound No. 74, DMEM, 30 minutes, 37° C. (FIG. 9)
Description: HeLa cells were cultured for 2 days at 37° C., 5% CO2. Live cells were stained with 200 nM compound No. 16 or 10 uM compound No. 74 in DMEM media for 30 minutes at 37° C., 5% CO2. Cells were washed in fresh medium and cells were viewed on a mercury arc lamp microscope using a Cy5 filter set. Images were taken using a CCD camera and Image Pro Express software.

Jurkat cells = test: Mitochondrial staining as a function of membrane potential (flow cytometry, with/without CCCP); assay type: cell-based; settings: 50 nM dye with and without 50 uM CCCP, 30 minutes, FL4 channel (FIG. 10)
Description: Live Jurkat cells were stained with 50 nM Compound No. 16 with and without 50 uM carbonyl cyanide m-chlorophenyl hydrozone (CCCP) for 30 minutes prior to analysis by flow cytometry on the FL4 channel of a BD FACS Calibur. Treatment with CCCP disrupts the mitochondrial membrane potential. The graph depicts the relative geometric mean fluorescence of the stained population treated without (Control) or with 50 uM CCCP. […] The membrane potential-dependent mitochondrial staining by compound No. 16 makes the dye useful for assessing the health of cells as only healthy cells have functional mitochondria and have normal membrane potential. For example, cells undergoing apoptosis are known to lose membrane potential.

[3] = Measurement of absorption and emission spectra of free dyes or dye-protein conjugates; assay type: physicochemical; settings: in MeOH
[4] = cited from earlier work; for absorption wavelength: commercial cyanine dyes used for the 633 nm laser
[5] = known xanthene dyes, background

CC1N=c2c(cc3c(c2S(=O)(=O)O)Oc2c(cc4c(c2S(=O)(=O)O)NC(C)C4(C)C)C=3c2nccn2CCCCCC(=O)ON2C(=O)CCC2=O)C1(C)C (centres unmarked) [Compound No. 1]
Absorption Wavelengths [1]: 548 nm
Emission Wavelengths [1]: 571 nm

CC1CC(C)(C)Nc2c1cc1c(c2S(=O)(=O)O)Oc2c(S(=O)(=O)O)c3c(cc2=C1c1nccn1CCCCCC(=O)ON1C(=O)CCC1=O)C(C)CC(C)(C)N=3 (centres unmarked) [Compound No. 2]
Absorption Wavelengths [1]: 559 nm
Emission Wavelengths [1]: 579 nm

CC1CC(C)(C)Nc2c1cc1c(c2S(=O)(=O)O)Oc2c(S(=O)(=O)O)c3c(cc2=C1c1[nH]cnc1C(=O)O)C(C)CC(C)(C)N=3 (centres unmarked) [Compound No. 3]
Absorption Wavelengths [1]: 529 nm
Emission Wavelengths [1]: 548 nm

CC1(C)C=C(CS(=O)(=O)O)c2cc3c(cc2=N1)Oc1cc2c(cc1C=3c1nccn1CCCCCC(=O)ON1C(=O)CCC1=O)C(CS(=O)(=O)O)=CC(C)(C)N2 [Compound No. 4]
Absorption Wavelengths [1]: 603 nm
Emission Wavelengths [1]: 626 nm

CCN1c2cc3c(cc2C(CS(=O)(=O)[O-])=CC1(C)C)C(c1nccn1CCCCCC(=O)ON1C(=O)CCC1=O)=c1cc2c(cc1O3)=[N+](CC)C(C)(C)C=C2CS(=O)(=O)O [Compound No. 5]
Absorption Wavelengths [1]: 622 nm
Emission Wavelengths [1]: 649 nm

CCN1c2cc3c(cc2C(CS(=O)(=O)O)=CC1(C)C)C(c1nccn1CCCCCC(=O)NCCOCCOCCOCCOCCOCCOCCOCCOCCOCCOCCOCCOC(=O)ON1C(=O)CCC1=O)=c1cc2c(cc1O3)=[N+](CC)C(C)(C)C=C2CS(=O)(=O)[O-] [Compound No. 6]
absorption peak ([1]; FIG. 1: conjugated to goat anti-mouse IgG in PBS): about 633 nm
Absorption Wavelengths [1]: 622 nm
Emission Wavelengths [1]: 649 nm
photostability [2]: significantly more photostable than DyLight 633; also recorded: approximately similar stability to that of Alexa Fluor 633; also recorded: very photostable

CC1(C)C=C(CS(=O)(=O)[O-])c2cc3c(c4c2N1CCC4)Oc1c2c4c(cc1=C3c1nccn1CCCCCC(=O)ON1C(=O)CCC1=O)C(CS(=O)(=O)O)=CC(C)(C)[N+]=4CCC2 [Compound No. 7]
Absorption Wavelengths [1]: 638 nm
Emission Wavelengths [1]: 660 nm

CCN1c2cc3c(cc2C(C)=CC1(C)C)C(c1nccn1Cc1ccc(CCl)cc1)=c1cc2c(cc1O3)=[N+](CC)C(C)(C)C=C2C.[Cl-] [Compound No. 9]
Absorption Wavelengths [1]: 622 nm
Emission Wavelengths [1]: 648 nm

CCN1c2cc3c(cc2C(C)=CC1(C)C)C(c1nccn1C)=c1cc2c(cc1O3)=[N+](CC)C(C)(C)C=C2C [Compound No. 16]
localization of dye in live cells (HeLa cells): concentrated in the mitochondria
membrane potential dependence of mitochondrial staining (Jurkat cells): stains mitochondria in a membrane potential-dependent fashion; also recorded: sensitive to disruption of the mitochondrial membrane potential
Absorption Wavelengths [3]: 622 nm
Emission Wavelengths [3]: 648 nm

CC1CC(C)(C)Nc2c1cc1c(c2S(=O)(=O)[O-])Oc2c(S(=O)(=O)O)c3c(cc2=C1c1n(CCCCCC(=O)ON2C(=O)CCC2=O)cc[n+]1C)C(C)CC(C)(C)N=3 (centres unmarked) [Compound No. 29]
Absorption Wavelengths [1]: 592 nm
Emission Wavelengths [1]: 615 nm

CCN1c2cc3c(cc2C(C)=CC1(C)C)C(c1nc2ccccc2n1C)=c1cc2c(cc1O3)=[N+](CC)C(C)(C)C=C2C.[Cl-] [Compound No. 70]
Absorption Wavelengths [3]: 628 nm
Emission Wavelengths [3]: 656 nm

CCN1c2cc3c(cc2C(C)=CC1(C)C)C(c1n(C)cc[n+]1C)=c1cc2c(cc1O3)=[N+](CC)C(C)(C)C=C2C [Compound No. 74]
localization of dye in live cells (HeLa cells): concentrated in the mitochondria
Absorption Wavelengths [3]: 660 nm
Emission Wavelengths [3]: 688 nm

CC1(C)C=C(CS(=O)(=O)[O-])c2cc3c(c4c2N1CCC4)Oc1c2c4c(cc1=C3c1n(CCCCCC(=O)ON3C(=O)CCC3=O)cc[n+]1CCCS(=O)(=O)O)C(CS(=O)(=O)[O-])=CC(C)(C)[N+]=4CCC2 [Compound No. 75]
Absorption Wavelengths [1]: 680 nm
Emission Wavelengths [1]: 701 nm

CCN1/C(=C/C=C/C=C/C2=[N+](CCCCCC(=O)O)c3ccc(S(=O)(=O)O)cc3C2(C)C)C(C)(C)c2cc(S(=O)(=O)[O-])ccc21 [Cy5]
absorption wavelength [4]: ~650 nm

CCN1c2cc3c(cc2C(CS(=O)(=O)[O-])=CC1(C)C)C(c1nccn1CCCCCC(=O)ON1C(=O)CCC1=O)=c1cc2c(cc1O3)=[N+](CCCS(=O)(=O)O)C(C)(C)C=C2CS(=O)(=O)O [compound 10]
Absorption Wavelengths [1]: 622 nm
Emission Wavelengths [1]: 649 nm

N=c1ccc2c(-c3[nH]cnc3C(=O)O)c3ccc(N)cc3oc-2c1 [compound 21]
Absorption Wavelengths [1]: 485 nm
Emission Wavelengths [1]: 508 nm

CCN1c2cc3c(cc2C(C)=CC1(C)C)C(c1ccncc1C(=O)[O-])=c1cc2c(cc1O3)=[N+](CCCCCC(=O)O)C(C)(C)C=C2C [compound 23]
Absorption Wavelengths [1]: 599 nm
Emission Wavelengths [1]: ~620 nm

CC1(C)C=C(CS(=O)(=O)O)c2cc3c(cc2=N1)Oc1cc2c(cc1C=3c1n(CCCCCC(=O)ON3C(=O)CCC3=O)cc[n+]1CCCS(=O)(=O)O)C(CS(=O)(=O)[O-])=CC(C)(C)N2 [compound 71]
Absorption Wavelengths [1]: 642 nm
Emission Wavelengths [1]: 662 nm

CCN1c2cc3c(cc2C(CS(=O)(=O)[O-])=CC1(C)C)C(c1n(CC(=O)N2CCC(C(=O)ON4C(=O)CCC4=O)CC2)cc[n+]1CCCS(=O)(=O)O)=c1cc2c(cc1O3)=[N+](CC)C(C)(C)C=C2CS(=O)(=O)[O-] [compound 72]
Absorption Wavelengths [1]: 660 nm
Emission Wavelengths [1]: 681 nm

CC1CC(C)(C)Nc2c1cc1c(c2S(=O)(=O)[O-])Oc2c(S(=O)(=O)O)c3c(cc2=C1c1n(CCCCCC(=O)ON2C(=O)CCC2=O)cc[n+]1CCCS(=O)(=O)O)C(C)CC(C)(C)N=3 (centres unmarked) [compound 76]
Absorption Wavelengths [1]: 593 nm
Emission Wavelengths [1]: 614 nm

C/N=c1\cc2oc3cc(NC)c(S(=O)(=O)O)cc3c(-c3nccn3CCCCCC(=O)O)c-2cc1S(=O)(=O)O [compound 77]
Absorption Wavelengths [1]: 578 nm⁻¹

O=C(O)CCCCCn1ccnc1-c1c2cc/c(=N/CC(F)(F)F)cc-2oc2cc(NCC(F)(F)F)ccc12 [compound 84]
Absorption Wavelengths [1]: 533 nm
Emission Wavelengths [1]: 550 nm

CCN1c2cc3c(cc2C(C)=CC1(C)C)C(c1nccs1)=c1cc2c(cc1O3)=[N+](CC)C(C)(C)C=C2C [compound 85]
Absorption Wavelengths [1]: 627 nm
Emission Wavelengths [1]: 698 nm

CCN1c2cc3c(cc2C(C)=CC1(C)C)C(c1cocn1)=c1cc2c(cc1O3)=[N+](CC)C(C)(C)C=C2C [compound 87]
Absorption Wavelengths [1]: 647 nm
Emission Wavelengths [1]: 676 nm

Alexa Fluor 647 [reference compound]
time to being essentially totally bleached ([2]; goat anti-mouse IgG conjugates on fixed Jurkat cells (FIG. 5)): about 1 minute
photostability [2]: poor photostability
absorption wavelength [4]: ~650 nm

carboxy-rhodamine 110
absorption maxima [4, 5]: 502 nm
emission maxima [4, 5]: 524 nm
